The test system of the assay is CAL51 cell proliferation. Description: Cell Titer Glo Proliferation Assay (CAL51). The format is cell-based, human. Conditions: Homo sapiens, CAL-51; CAL51 cell proliferation, 72 h, Cell Titer Glo luminescence; read-out: Act. Level. In outline: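 CAL51 triple-negative breast cancer cells in DMEM or RPMI with 10% FBS were treated after overnight culture with serially diluted compound at 0.2% final DMSO. After 72 h, viability was read as CellTiter-Glo luminescence.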
On the technique in general: Cellular ATP, detected with luciferase, serves as a proxy for viable cell number.

pIC50: −log10 of the molar value.

Consider `Cc1nc2ccc(-c3c[nH]c4nc(Nc5ccc(C(=O)N(C)C)cc5C)nc(OC5CCNCC5)c34)cc2o1` [Example 97, N,N,3-trimethyl-4-(5-(2-methylbenzo[d]oxazol-6-yl)-4-(piperidin-4-yloxy)-7H-pyrrolo [2,3-d]pyrimidin-2-ylamino) benzamide], for which the pIC50 is 5.00 to 6.00. Next, `COc1cc(C(=O)NC2COC2)ccc1Nc1nc(O[C@H]2CC[C@@](C)(O)CC2)c2c(-c3ccc4nc(C)oc4c3)c[nH]c2n1` [Example 314, 4-(4-((1s,4s)-4-hydroxy-4-methylcyclohexyloxy)-5-(2-methylbenzo[d]oxazol-6-yl)-7H-pyrrolo[2,3-d]pyrimidin-2-ylamino)-3-methoxy-N-(oxetan-3-yl)benzamide]: over 7.00; `COc1cc(C(=O)NCC(C)(C)O)ccc1Nc1nc(OC2CCCC2)c2c(-c3ccc4nc(C)oc4c3)c[nH]c2n1` [Example 285, 4-(4-(cyclopentyloxy)-5-(2-methylbenzo[d]oxazol-6-yl)-7H-pyrrolo[2,3-d]pyrimidin-2-ylamino)-N-(2-hydroxy-2-methylpropyl)-3-methoxybenzamide]: 6.40 to 7.00.

With `Cc1cc(C(=O)N(C)C)ccc1Nc1nc(O[C@H]2CCOC2)c2c(-c3ccncc3)c[nH]c2n1` [Example 176, (S)-N,N,3-trimethyl-4-(5-(pyridin-4-yl)-4-(tetrahydrofuran-3-yloxy)-7H-pyrrolo[2,3-d]pyrimidin-2-ylamino)benzamide], the pIC50 is 6.40 to 7.00.

Consider `COc1nc(Nc2ccc(C(=O)N(C)C)cc2Cl)nc2[nH]cc(-c3ccc4[nH]c(N)nc4c3)c12` [Example 71, 4-(5-(2-amino-1H-benzo[d]imidazol-5-yl)-4-methoxy-7H-pyrrolo[2,3-d]pyrimidin-2-ylamino)-3-chloro-N,N-dimethylbenzamide], for which the pIC50 is 6.40 to 7.00. Next, `COc1cc(C(=O)NC2COC2)ccc1Nc1nc(OC2CCCC2)c2c(-c3cnn(C)c3)c[nH]c2n1` [Example 303, 4-(4-(cyclopentyloxy)-5-(1-methyl-1H-pyrazol-4-yl)-7H-pyrrolo[2,3-d]pyrimidin-2-ylamino)-3-methoxy-N-(oxetan-3-yl)benzamide]: over 7.00; `Cc1cc(C(=O)N(C)C)ccc1Nc1nc(OC2CCOCC2)c2c(-c3ccn(C)n3)c[nH]c2n1` [Example 113, N,N,3-trimethyl-4-(5-(1-methyl-1H-pyrazol-3-yl)-4-(tetrahydro-2H-pyran-4-yloxy)-7H-pyrrolo[2,3-d]pyrimidin-2-ylamino)benzamide]: 6.00 to 6.40. For the molecule `CNC(=O)c1ccc(-c2c[nH]c3nc(Nc4ccc(C(=O)NC)cc4OC)nc(OC)c23)cc1` [Example 124, 3-methoxy-4-(4-methoxy-5-(4-(methylcarbamoyl)phenyl)-7H-pyrrolo[2,3-d]pyrimidin-2-ylamino)-N-methylbenzamide], the pIC50 was 6.40 to 7.00. Under `CNC(=O)c1ccc(Nc2nc(OC3CCCC3)c3c(-c4ccc5c(ccn5C)c4)c[nH]c3n2)c(OC)c1` [Example 78, 4-(4-(cyclopentyloxy)-5-(1-methyl-1H-indol-5-yl)-7H-pyrrolo[2,3-d]pyrimidin-2-ylamino)-3-methoxy-N-methylbenzamide] stands 5.00 to 6.00; under `COc1cc(CN)ccc1Nc1nc(OC2CCCC2)c2c(-c3ccc(O)cc3)c[nH]c2n1` [Example 52, 4-(2-(4-(aminomethyl)-2-methoxyphenylamino)-4-(cyclopentyloxy)-7H-pyrrolo[2,3-d]pyrimidin-5-yl)phenol], 6.40 to 7.00; under `CNC(=O)c1ccc(Nc2nc(OC3CCCC3)c3c(-c4cccc(N)c4)c[nH]c3n2)c(OC)c1` [Example 65, 4-(5-(3-aminophenyl)-4-(cyclopentyloxy)-7H-pyrrolo[2,3-d]pyrimidin-2-ylamino)-3-methoxy-N-methylbenzamide], over 7.00. For `CNC(=O)c1ccc(Nc2nc(OC3CCOCC3)c3c(-c4ccnc(N(C)C)c4)c[nH]c3n2)c(OC)c1` [Example 131, 4-(5-(2-(dimethylamino)pyridin-4-yl)-4-(tetrahydro-2H-pyran-4-yloxy)-7H-pyrrolo[2,3-d]pyrimidin-2-ylamino)-3-methoxy-N-methylbenzamide], the pIC50 was over 7.00.

The record behind these values is patent US9346812B2, “Substituted pyrrolopyrimidine compounds, compositions thereof, and methods of treatment therewith” (Signal Pharmaceutical LLC, priority 2013, dated 2016).
